Assay results reported in publication PMC8952293, “A Histone Deacetylase (HDAC) Inhibitor with Pleiotropic In Vitro Anti-Toxoplasma and Anti-Plasmodium Activities Controls Acute and Chronic Toxoplasma Infection in Mice” (International Journal of Molecular Sciences, 2022).

Experiments:
[1] = tested on: P. berghei hepatic infection; experiment: In vitro P. berghei hepatic infection of Huh7 cells (bioluminescence); format: cell-based; conditions: Plasmodium berghei, Huh-7
Protocol: Huh7 cells, a human hepatic cell line employed in the assessment of drug activity against the hepatic stage of P. berghei infection, were cultured in RPMI 1640 supplemented with 10% (v/v) fetal bovine serum, 1% (v/v) penicillin/streptomycin, 1% (v/v) glutamine, 1% (v/v) nonessential amino acids, and 10 mM N-2-hydroxyethylpiperazine-N′-2-ethanesulfonic acid (HEPES) at 37 °C and 5% CO2. For infection, Huh7 cells were seeded in 96-well plates at 1 × 10^4 cells/well.
Liver stage. The action of JF363 against the liver stage of P. berghei infection was assessed by bioluminescence, as previously described. Briefly, one day before infection, Huh7 cells were seeded in 96-well plates. JF363 stock solution was prepared in dimethyl sulfoxide (DMSO) and serially diluted in infection medium (culture medium supplemented with 50 µg/mL of gentamicin and 0.8 µg/mL of fungizone) to obtain the test concentrations (1, 10, 25, 50, […], 500 nM). […] At 46 h post-infection, the impact of the compound on cell viability was assessed by the AlamarBlue assay (Invitrogen, Carlsbad, CA, USA), following the manufacturer’s instructions. Following the manufacturer’s instructions, the drug’s effect on the parasite load was next evaluated using the Firefly Luciferase Assay Kit 2.0 (Biotium, Fremont, CA, USA). […]

[2] = tested on: T. gondii type II Prugniaud strain; experiment: Chronic phase study: brain cyst burden in infected CBA mice; format: in vivo, mouse
Protocol: To assess the efficacy of compound JF363 on Toxoplasma cyst formation, infected CBA mice were treated for 15 days, two months post-infection. Then, 15 days later, mice were sacrificed, and brain cysts were counted.
Inbred CBA mice (Janvier Labs, Le Genest-Saint-Isle, France) were infected with 500 tachyzoites of Pru-DeltaKu80::HX strain. One month post-infection, effective infection was assessed by ELISA as described previously. Two months post-infection, mice were treated with 20 or 40 mg/kg of JF363 (corn oil/5% DMSO) for 15 days. Animals were sacrificed 15 days later, corresponding to 3 months post-infection, and brain cysts were counted. After removal and homogenization of mouse’s brain in 4 mL of PBS, suspensions were clarified by gentle incubation in proteinase K buffer (proteinase K 0.4 mg/mL, 10 mM Tris pH 8, ethylenediaminetetraacetic acid (EDTA) 1 mM, sodium dodecyl sulfate (SDS) 0.2%, sodium chloride 40 mM) for 15 min at 56 °C. The reaction was stopped by adding phenylmethylsulfonyl fluoride (PMSF) 2 mM and further incubation for 5 min at room temperature. The suspension was then washed with PBS and resuspended with fluorescein isothiocyanate (FITC)–Dolichos biflorus agglutinin (Vector Laboratories, CA, USA) […] for 30 min, at room temperature. At the end of the incubation, the suspension was washed with PBS and resuspended in a final volume of 1 mL of PBS distributed into six-well culture plates (1 brain per well). The number of cysts was counted by exanimation under an Axiovert 40 CFL inverted fluorescence microscope, Zeiss.

[3] = mouse, in vivo

COc1cccc(CC(=O)Nc2ccc(C(=O)NO)cc2)c1 [JF363]
IC50 ([1]; Pb hepatic infection, Huh7 cells, 46 h post-infection): 98.9 ± 22.7 nM | IC50 ([1]; hepatic stage of Plasmodium infection (discussion)): ~100 nM | diminution of cyst burden in the brain compared to untreated animals ([2]; 40 mg/kg): 65% | number of brain cysts, range ([2]; 40 mg/kg oral for 15 days, two months post-infection, nontreated 76 to 312): 21–85 | number of brain cysts (mean ± SD) ([2]; 40 mg/kg oral for 15 days, two months post-infection, nontreated 168 ± 95, p < 0.05): 57 ± 29 | toxicity in healthy treated mice (survival, hair loss, erythema, organ failure) [3]: not toxic
